Patent US20260183303A1, “PDK1 REGULATORY COMPOUND AND COMPOSITION CONTAINING THE SAME” (PROVIBIO CO., LTD., priority 2024, published 2026)

Legend:
[1] = biological target: T1, PDK1 (phosphoinositide-dependent kinase 1) phosphorylation (Homo sapiens, UniProt O15530); experiment: PDK1 phosphorylation (pPDK1-PE) by flow cytometry in SU-DHL-8 cells; type: cell-based; settings: 24 hours, compared to the control group
T1 construct: endogenous in cells; host or cells: SU-DHL-8 (ATCC CRL-2961)
T1 sequence (O15530 1-556): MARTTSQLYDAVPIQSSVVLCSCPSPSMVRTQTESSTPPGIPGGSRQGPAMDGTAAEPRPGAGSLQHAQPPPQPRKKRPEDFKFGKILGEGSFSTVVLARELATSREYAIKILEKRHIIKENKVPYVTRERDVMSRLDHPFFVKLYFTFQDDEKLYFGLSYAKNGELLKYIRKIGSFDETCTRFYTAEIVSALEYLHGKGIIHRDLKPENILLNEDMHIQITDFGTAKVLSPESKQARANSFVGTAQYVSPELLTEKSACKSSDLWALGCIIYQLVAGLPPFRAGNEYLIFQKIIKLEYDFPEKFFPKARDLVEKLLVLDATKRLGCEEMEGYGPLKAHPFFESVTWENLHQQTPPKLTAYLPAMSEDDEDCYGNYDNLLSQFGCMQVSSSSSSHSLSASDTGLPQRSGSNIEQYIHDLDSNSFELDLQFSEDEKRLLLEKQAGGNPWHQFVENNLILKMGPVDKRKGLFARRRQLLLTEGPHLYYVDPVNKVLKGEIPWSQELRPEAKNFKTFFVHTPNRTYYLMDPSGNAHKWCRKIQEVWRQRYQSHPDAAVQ
Protocol: After stabilizing the cells, the compound of the present invention was added, and the cells were cultured for 24 hours.
After drug treatment, the cells were harvested, and the Fc receptor blocking process was performed. The cells were then fixed and permeabilized using the Intracellular Staining Kit (Cat. No. BD554715) from BD Biosciences. Subsequently, the intracellular pPDK1 was stained using the pPDK1-PE fluorescently labeled antibody (BD Biosciences).
Referring to the figure, the vertical axis represents the phosphorylation level of PDK1 (phospho-PDK1 expression level), and the horizontal axis denotes the concentration-dependent treatment conditions of each compound.

[2] = test system: MRL/lpr mice with hair loss symptoms in the facial region; experiment: Hair loss treatment and hair follicle Ki-67 IHC in MRL/lpr mice; type: in vivo; settings: 41-week-old female MRL/lpr mice; GO15F (30 mg/kg), G048 (1 mg/kg), G088 (0.5 mg/kg) intraperitoneally once daily
Protocol: Additionally, in 41-week-old female MRL/lpr mice, the compounds GO15F (30 mg/kg), G048 (1 mg/kg), and G088 (0.5 mg/kg) were administered intraperitoneally once daily.
To confirm the proliferative activity of hair follicle cells in the skin tissue of these mice, the mice were sacrificed 14 days after administration of the compounds of the present invention, and Ki-67 immunohistochemistry […] was performed.
For this purpose, the excised skin tissue was fixed in formalin, embedded in paraffin blocks, and stained with a Ki-67-specific antibody on tissue sections prepared as slides.

[3] = test system: bleomycin-induced pulmonary fibrosis mice; experiment: Pulmonary fibrosis model induced by bleomycin intratracheal administration; type: in vivo, Balb/c mice; settings: BLM mice, vs BLM-treated group
Source text: To evaluate the therapeutic efficacy of the compound according to the present invention against pulmonary fibrosis, an animal model of pulmonary fibrosis induced by bleomycin intratracheal administration was established.
For this purpose, 8-week-old male Balb/c mice were subjected to general anesthesia using an inhalation anesthetic (2-3% isoflurane in oxygen), followed by disinfection of the neck region, skin incision, and exposure of the trachea.
Bleomycin (Sigma-Aldrich, USA)was directly administered into the trachea at a concentration of 5 mg/kg in a solution of […].
Two days prior to Bleomycin administration, the compound of the present invention or the comparative drug was administered intraperitoneally at the specified concentration and dose, and the administration was continued once daily for a total of 14 days.
The experimental groups included Normal, Bleomycin alone (BLM), and BLM plus the compound of the present invention (BLM+G088, 0.2 mg/kg).
Ten days later, the mice were euthanized humanely using carbon dioxide gas, the trachea was incised, and PBS was injected into the trachea to remove blood from the lungs.
The lung tissue washed with PBS was excised, fixed in 4% paraformaldehyde solution for 24 hours, and then paraffin blocks and tissue sections were prepared. The prepared sections were subjected to pathological analysis using H&E, Masson's trichrome, and Sirius red staining.
Additionally, immunohistochemical (IHC) staining was performed for α-SMA (α-smooth muscle actin), an indicator of lung fibroblast activation.

[4] = test system: MRL/MpJ-Faslpr/J (MRL/lpr) lupus animal model; experiment: Systemic lupus erythematosus model, MRL/lpr mice; type: in vivo
Source text: The MRL/MpJ-Faslpr/J (hereinafter referred to as “MRL/lpr”) used in this experiment is one of the representative animal models for systemic lupus erythematosus (SLE), known to produce various autoantibodies, including antinuclear antibodies, due to the lpr (lymphoproliferation) gene.
Generally, female MRL/lpr develop systemic lupus erythematosus around 12 weeks of age, and approximately 50% of the animals die by 30 weeks of age.
In this invention, the period up to 9 weeks of age was considered the pre-disease stage, and the period after 23 weeks of age was considered the post-disease stage, and efficacy verification experiments using this model were conducted.
To obtain experimental animals, female MRL/lpr mice aged 6 weeks were imported from The Jackson Laboratory, and MRL/lpr mice were imported from The Jackson Laboratory and acclimatized for one week in an SPF (Specific Pathogen Free) facility maintained at a temperature of 21-24° C., humidity of 40-60%, and a 12-hour light-dark cycle (lights on at 7:00 AM, lights off at 7:00 PM).
Subsequently, female and male MRL/lpr mice were mated at a ratio of 2:1 in the same facility, and the female offspring were administered the compound G015F of the present invention or vehicle at a dose of 30 mg/kg once daily via intraperitoneal injection or oral administration from the age of 10 weeks until 23 weeks of age.
Urine samples were collected once a week from each individual and used for analytical experiments.
At 23 weeks of age, necropsy was performed on each MRL/lpr mouse, and serum, kidneys, and spleens were isolated and used for analytical experiments.
The protein concentration in urine collected weekly from the control group or experimental group was analyzed using ‘Quick Start™ Bradford 1× Dye Reagent (Bio-Rad, Cat. #5000205).’
In each well of a 96-well plate, 5 μl of urine sample diluted with triple-distilled water and 250 μl of 1× dye reagent were added, reacted, and the absorbance was measured at 595 nm.
The concentration of anti-nuclear antibodies (Anti-dsDNA Ab) was measured using the ‘Mouse Anti-dsDNA IgG ELISA Kit (Alpha Diagnostic International, Cat. #5120)’ on serum isolated at the time of necropsy in the lupus animal model.
Each mouse serum was diluted to a final concentration of 1/5000 with Working Sample Diluent (WSD) and Low NSB Sample Diluent (LNSD), followed by adding 100 μl of the diluted serum to wells coated with anti-dsDNA and incubating at room temperature for 60 minutes.
The wells were then washed four times with 200 μl of washing buffer, followed by the addition of 100 μl of Anti-Mouse IgG-HRP antibody, and the mixture was incubated at room temperature for 30 minutes.
Each well was washed four times with 200 μl of washing buffer, and 100 μl of 3,3′,5,5′-Tetramethylbenzidine (TMB) substrate solution was added to each well.
The degree of color change to blue in the wells containing the standard solution was checked, and after 15 minutes, 100 μl of stop solution was added to terminate the reaction.
After the reaction was complete, the optical density (OD) was measured at 450 nm. […]
After that, each well was washed twice with 400 μl of washing solution, and 100 μl of TMB substrate solution was added to each well.
The degree of color change to blue in the wells containing the standard solution was checked, and after 15 minutes, 100 μl of stop solution was added to stop the reaction.
To investigate the effect of G015F administration on changes in the ratio of immune cells in the spleen of a lupus animal model, the spleens of mice administered each compound were excised, cells were extracted, and the cells were suspended in MACS buffer (autoMACS Washing Solution, Miltenyi Biotec., Cat. #130-092-987).
For flow cytometry analysis, FACS tubes (5 mL round tubes, Falcon, Cat. #352052)were used. […]

[5] = biological target: T2, full-length PDK1 (PDK1-FL) (Homo sapiens, UniProt O15530); experiment: Binding affinity by Microscale Thermophoresis (MST), full-length PDK1; settings: ratio of Kd values
T2 construct: full-length (PDK1-FL) protein of human-derived PDK1; made in house; host or cells: Sf9 insect cells, baculovirus
T2 sequence (O15530 1-556): T1 sequence (O15530 1-556)
Protocol: Experimental Example 16: Binding affinity experiment with PDK1 using MST Microscale Thermophoresis (MST) analysis was performed to quantitatively measure the binding affinity between PDK1 protein and substrate peptides (PDKTide) or the company-developed low-molecular-weight compound (GO88).
The target proteins were the full-length (PDK1-FL) protein of human-derived PDK1 and the Protein Kinase Domain (PKD) fragment, which were expressed using a baculovirus expression system in insect cell lines (Sf9).
The purity of the purified proteins was confirmed by SDS-PAGE and Coomassie Brilliant Blue staining.
The purified protein was labeled with a fluorescent label using the Monolith NT™ RED-NHS Protein Fluorescent Labeling Kit (NanoTemper).
Specifically, 20 μM of the protein was dissolved in PBS (pH 7.4) buffer, mixed with the fluorescent reagent, and reacted at room temperature under dark conditions for 30 minutes. The mixture was then buffered with MST analysis buffer (50 mM HEPES, 150 mM NaCl, 1 mM DTT, 0.05% Tween-20, pH 7.5). […]
The reaction samples were injected into an MST-specific capillary (NanoTemper) and analyzed using a Monolith NT.115 device (NanoTemper) under laser intensity conditions. […]
The measured data were analyzed using MO.Affinity Analysis software (NanoTemper), and the dissociation constant (Kd) was calculated from the binding curve.

[6] = test system: human lung fibroblasts MRC-5 cell lines; experiment: Collagen I Western blot in TGF-β treated MRC-5 cells; type: cell-based; settings: MRC-5, TGF-β (5 ng/ml), G088 0.5 μM and 1 M (so in the source), 24 hours
Protocol: To confirm that the compound of the present invention directly acts on fibrosis-related mechanisms, in vitro experiments were performed using human lung fibroblasts MRC-5 cell lines (Korea Cell Bank).
First, MRC-5 cells were seeded at 5×10^3 cells per well in a 6-well plate and stabilized for 24 hours.
Subsequently, experimental groups were established, including a control group, a group treated with TGF-β (5 ng/ml) alone, and groups treated with TGF-β and the compound G088 from the present invention at concentrations of 0.5 μM and […], respectively.
After treating each group with the drugs for 24 hours, the cell medium was removed, and the cells were washed twice with cold PBS. Then, RIPA lysis buffer containing phosphatase inhibitor and protease inhibitor was added to each group to extract proteins.
The extracted proteins were incubated at 4° C. for 30 minutes, then centrifuged at 13,000 rpm for 15 minutes, and the supernatant was collected. The total protein concentration was measured using the BCA protein quantification method.
Subsequently, the proteins were separated by SDS-PAGE, transferred to a PVDF membrane, and Western blot analysis was performed.
The expression levels of Collagen I, a marker related to pulmonary fibrosis, were confirmed, with GAPDH used as an internal control.

[7] = serum at necropsy (23 weeks), ELISA

| phospho-PDK1 expression level (inhibition of PDK1 phosphorylation) [1] | binding affinity of full-length PDK1 compared to the PDK fragment [5] | Compound | hair growth on the facial region [2] | collagen deposition (Masson's trichrome, Sirius red) [3] | expression of α-SMA in lung tissue (IHC) [3] | protein concentration in urine ([4]; 30 mg/kg once daily, weekly urine, Bradford) | renal pathological tissue staining (glomeruli) ([4]; H&E, PAS, Masson trichrome) | B cells, T cells and macrophages in the spleen ([4]; flow cytometry (B220, CD3, CD11b/F4/80)) | IgG deposition in kidney tissue ([4]; immunofluorescence staining) | concentration of anti-dsDNA IgG in the blood [4, 7] | total IgG concentration in the blood [4, 7] | protein expression of Collagen I [6] |
| --- | --- | --- | --- | --- | --- | --- | --- | --- | --- | --- | --- | --- |
| stronger PDK1 inhibition | – | Nc1ncccc1C(=O)NCCCCCCCCCCCCN1CCOCC1 [Compound 2, 2-Amino-N-(12-morpholin-4-yl-dodecyl)-nicotinamide] | hair growth was confirmed | – | – | – | – | – | – | – | – | – |
| stronger PDK1 inhibition | six times stronger | Nc1ncccc1C(=O)NCCCCCCCCCCCCN1CCNCC1 [Compound G088] | hair growth was confirmed | significantly reduced | significantly suppressed | – | – | – | – | – | – | inhibited in a concentration-dependent manner |

| Compound | phospho-PDK1 expression level (inhibition of PDK1 phosphorylation) [1] | binding affinity of full-length PDK1 compared to the PDK fragment [5] | hair growth on the facial region [2] | collagen deposition (Masson's trichrome, Sirius red) [3] | expression of α-SMA in lung tissue (IHC) [3] | protein concentration in urine ([4]; 30 mg/kg once daily, weekly urine, Bradford) | renal pathological tissue staining (glomeruli) ([4]; H&E, PAS, Masson trichrome) | B cells, T cells and macrophages in the spleen ([4]; flow cytometry (B220, CD3, CD11b/F4/80)) | IgG deposition in kidney tissue ([4]; immunofluorescence staining) | concentration of anti-dsDNA IgG in the blood [4, 7] | total IgG concentration in the blood [4, 7] | protein expression of Collagen I [6] |
| --- | --- | --- | --- | --- | --- | --- | --- | --- | --- | --- | --- | --- |
| Nc1ncccc1C(=O)NCCCCCCCCCCCCF [Compound G015F] | inhibitory effect on PDK1 phosphorylation | – | – | significantly reduced | significantly suppressed | significantly lower | glomerular capillary loops were well maintained | reduced the increased B cells, T cells, and macrophages | significantly lower | significantly lower | significantly lower | – |
